The values below come from patent US4317768A, “Dihydropyridine derivatives as stabilizers for vinyl chloride polymers” (priority 1977, dated 1982).

Experiment [1] in a line: Antioxidant power on a polyvinyl chloride resin, GARDNER method, 185° C. As for the experimental part:
By direct comparison, on a polyvinyl chloride resin, of the antioxidant power of Compound 1 of the invention and that of an antioxidant known as one of the most valuable and frequently used in polyvinyl chloride, namely 2,6-diterbutyl-4-methyl-phenol.
The antioxidant power of Compound 1 was compared to that of 2,6-diterbutyl-4-methyl-phenol (Compound 2) by using the following resin:
The study was carried out according to the GARDNER method, the samples being removed from an oven at 185° C. every 10 minutes over a period of 80 minutes.
The signs + and - have the same meanings as in the previous table and > 2 means that the coloration lies between 2 and 2+.

Assay in experiment [2]: as above
The source holds these as a separate data set.

Experiment [3] is described as follows: Photostabilizing power, tetrahydrofuran solution of plates exposed to the sun, French Pharmacopeia. As for the experimental part: The photostabilizing power of the compounds of the invention was studied by exposing to the sun polyvinyl chloride plates which had been stabilized either by a dihydropyridine of the invention or by 2-phenyl-indole, or again by 2-(3'-methoxy-4'-hydroxy)-indole. This last product is an extremely valuable thermostabilizer for thermoplastic resins and is described in British Pat. No. 1,489,685.
The resin given hereunder was prepared by mixing on cylinders at 160° C.:
The plates of stabilized polyvinyl chloride, together with a plate which had not been stabilized, were stood in the sun under the same conditions and at the same time. Their colour was measured after 6 hours and 12 hours of exposure.
The coloration of the plates was determined according to two methods:
On a solution of these plates in tetrahydrofuran, the coloration of th solution being measured according to the French Pharmacopeia (IXth edition, II-338).

Turning to `C=CCOC(=O)C1=C(C)NC(C)=C(C(=O)OCC=C)C1` [Compound 1, 2,6-Dimethyl-3,5-dicarboallyloxy-1,4-dihydropyridine], the “coloration, GARDNER scale” value is on record as 1 in experiment [1] (0.05 part, 0 min); 1 in experiment [1] (0.05 part, 10 min); 7 in experiment [1] (0.05 part, 60 min); 8 in experiment [1] (0.05 part, 70 min); 1 in experiment [1] (0.1 part, 0 min); 1 in experiment [1] (0.1 part, 10 min). The “coloration, GARDNER scale” value is on record as less than 2 in experiment [1] (0.1 part, 30 min); 7 in experiment [1] (0.1 part, 60 min); 7 in experiment [1] (0.1 part, 70 min); 1 in experiment [1] (0.2 part, 0 min); 1 in experiment [1] (0.2 part, 10 min); 1 in experiment [1] (0.2 part, 20 min). In addition, the “coloration, GARDNER scale” value is 2 in experiment [1] (0.2 part, 40 min); 3 in experiment [1] (0.2 part, 50 min); 5 in experiment [1] (0.2 part, 60 min); greater than 6 in experiment [1] (0.2 part, 70 min); 1 in experiment [1] (0.3 part, 0 min); 1 in experiment [1] (0.3 part, 10 min). Besides, the “coloration, GARDNER scale” value in experiment [1] (0.3 part, 20 min) is 1; in experiment [1] (0.3 part, 30 min), 1; in experiment [1] (0.3 part, 40 min), 2; in experiment [1] (0.3 part, 50 min), greater than 2; in experiment [1] (0.3 part, 60 min), 8; in experiment [1] (0.3 part, 70 min), 8. Further, the “coloration, GARDNER scale” value in experiment [1] (0.4 part, 0 min) was determined as 1; in experiment [1] (0.4 part, 10 min) it was 1; in experiment [1] (0.4 part, 20 min) it was 1; in experiment [1] (0.4 part, 30 min) it was 1; in experiment [1] (0.4 part, 60 min) it was 4; in experiment [1] (0.4 part, 70 min), 8. Also, the “coloration, GARDNER scale” value is listed as 1 in experiment [1] (0.5 part, 0 min); 1 in experiment [1] (0.5 part, 10 min); 1 in experiment [1] (0.5 part, 20 min); greater than 1 in experiment [1] (0.5 part, 30 min); 1 in experiment [1] (1.0 part, 0 min); 1 in experiment [1] (1.0 part, 10 min). Also, the “coloration, GARDNER scale” value in experiment [1] (1.0 part, 20 min) is given as 1; in experiment [1] (1.0 part, 30 min), 1; in experiment [1] (1.0 part, 50 min), 4; in experiment [1] (1.0 part, 60 min), 8. In addition, the “antioxidant power, Compound 1 vs Compound Z, in words” value in experiment [2] is listed as “superior to Compound Z at every concentration”.
In the case of `CC1=C(C(=O)OCc2ccccc2)CC(C(=O)OCc2ccccc2)=C(C)N1` [Compound 21, 2,6-Dimethyl-3,5-dicarbobenzyloxy-1,4-dihydropyridine], the results for the “Coloration of the plates FRENCH PHARMACOPEIA” value in experiment [3] (exposure to sun 0), in experiment [3] (exposure to sun 6h) and in experiment [3] (exposure to sun 12h) were “JV6”, “JV6” and “JV5”, respectively.
